Results: patent publication US10668102B2, “Lineage differentiation of encapsulated embryonic stem cells” (Rutgers, The State University of New Jersey, priority 2010, dated 2020)

Columns and labels:
[1] = system: ESD3 cells; conditions: for cell morphology / CNPase expression over time / O1 expression over time: 2D; for cell morphology: Day 30, after 14 days of agonist exposure; for CNPase expression over time / O1 expression over time: agonist from Day 16 to Day 30
Description: In order to induce differentiation, cells were replated into gelatin coated 6 well plates (Biocoat, BD-Biosciences, Bedford, Mass.) at a density of 1×10^4 cells/cm^2. Cells were placed in DMEM/F12 (Invitrogen, Carlsbad, Calif.) media supplemented with 1% N-2 (Invitrogen—contains human transferrin, insulin, progesterone, putrescine and selenite), 100 U/mL penicillin and 100 U/mL streptomycin for 8 days. Every 2 days, media was aspirated and replaced with fresh media. On day 8, the cells were replated at a density of 0.5×10^4 cells/cm^2 into 24 well plates (Falcon, BD Biosciences, San Jose, Calif.) that were precoated with 0.1% Gelatin (Sigma-Aldrich) for 1 hour at 37° C. To aid in cell attachment, 10 ng/ml basic fibroblast growth factor (bFGF) was added. From day 8 to day 16, 1% Fetal Bovine Serum (FBS-Invitrogen) is added. Every 2 days, media was aspirated and replaced with fresh media.
On day 16, the cells are replated at a density of 0.5×10^4 cells/cm^2 into the same differentiation media supplemented with either 10 μM PPAR alpha (Sigma-Aldrich: WY-14643), 1 μM PPAR delta (Sigma-Aldrich: GW0742), or 10 μM PPAR gamma (Sigma-Aldrich: GW1929). All three agonists were dissolved in 0.05% DMSO (Sigma-Aldrich). Every 2 days, media was aspirated and replaced with fresh media with agonists. Cells were fixed for immunofluorescence analysis on Days 22, 26 and 30.
Cells were fixed before doing any immunofluorescence. This was done by first washing the cells 3 times in Tris Buffered Saline (TBS) followed by incubating the cells in 4% paraformaldehyde (Sigma-Aldrich) for 15 minutes at room temperature. The cells were again washed 3 times in TBS for 5 minutes at room temperature). In order to reduce non-specific binding of the antibodies to proteins on/within the cells, they were first blocked for 45 minutes at room temperature by incubating the cells with TBS, 10% goat serum (Invitrogen), 1% Bovine Serum Albumin (BSA-Sigma) and depending on if the protein in question is intracellular, 0.1% Triton X-100. The cells were then incubated overnight at 4° C. with the respective primary antibody in TBS, 1% goat serum and if the protein in question was intracellular, 0.1% Triton X-100. The antibodies used were: 5 μg/ml mouse anti-A2B5 IgM (Chemicon), 2 μg/ml mouse anti-O1 IgM (R&D Systems, Minneapolis, Minn.), 12.6 μg/ml mouse anti-CNPase (2′, 3′-cyclic nucleotide 3′-phosphodiesterase) IgG1 (Sigma) and 8 μg/ml rabbit anti-Myelin Basic Protein IgG (MBP—abcam, Cambridge, Mass.). To account for non-specific binding, isotype controls were used for each antibody: for A2B5 and O1—mouse IgM (Chemicon), for CNPase—mouse IgG1 (BD Biosciences) and for MBP—rabbit IgG (Invitrogen). The cells were washed 3 times for 5 minutes in TBS and if the protein in question was intracellular, 0.1% […]. The cells were then incubated for 1 hour at room temperature with the respective secondary in TBS and if the protein in question is intracellular, 0.1% Triton X-100. The secondaries used were: for A2B5 and O1—Alexa Fluor 488 goat anti-mouse IgM (Invitrogen—1:500), CNPase—Alexa Fluor 488 goat anti-mouse IgG1 (Invitrogen—1:500) and MBP—Alexa Fluor 488 goat anti-rabbit IgG (Invitrogen—1:500). The cells were then washed 2 times in TBS for 5 minutes at room temperature. The cells were counterstained with Hoechst 33342 (Invitrogen) for 10 minutes at room temperature (1 μg/ml).
Fluorescent images were acquired using a computer interfaced inverted Olympus IX70 microscope. Specimens were excited using a 488 nm filter. Fluorescent intensity values were determined for each cell using Olympus Microsuite™ software. Experimental intensity values for each cell were calculated after subtracting the average intensity of the isotype control.

[2] = system: ESD3 cells; experiment: Oil Red O staining of monolayer ESD3 cells; type: cell-based, mouse; conditions: 2D, by Day 30
Procedure: After the cells were fixed using 4% paraformaldehyde, they were then washed twice with PBS and rinsed once with 60% isopropanol (Sigma) for 5 minutes. A 0.18% Oil Red O (Sigma) solution in diH2O was then added to the cells for 10 minutes (diluted down from a 0.3% stock solution of Oil Red O in 99% isopropanol and filtered through filter paper). The cells were then rinsed several times with PBS (30 second rinses) until all excess Oil Red O was removed. […] Images were taken using an Olympus CKX-41 microscope with an Olympus Magnafire Color Camera and Magnafire software v.2.1C.
Oil Red O is a fat-soluble dye used for the staining of neutral triglycerides and lipids and among other things is used to detect myelin and myelin degradation products (Boven, L. A., et al., Brain, 129(Pt 2):517-526 (2006); Zou, T., et al., J. Neuropathol. Exp. Neurol., 65(1):78-86 (2006)).

[3] = system: encapsulated ES cells; experiment: Three dimensional alginate poly-L-lysine encapsulated oligodendrocyte differentiation, immunofluorescence; type: cell-based, mouse; conditions: for O1 expression / MBP expression / CNPase expression: IMDM + RA 8 days then PPAR agonist; for CNPase expression: peak
Procedure: The alginate encapsulation process was done using the protocol setup by Maguire, T., et al., Biotechnol. Bioeng., 93(3):581-91(2006). Briefly, an alginate solution was generated by dissolving 2.2 g of alginate (Sigma-Aldrich, MW: 100,000-200,000 g/mol, GContent: 65%-70%) in 100 mL of Ca^2+ free DMEM, using a heated magnetic stir plate at a temperature of 45° C. The solution was then filtered using a 25-micron syringe filter (Fisher Brand, Pittsburgh, Pa.). A confluent monolayer of undifferentiated ES cells were removed following trypsin incubation, centrifuged for 10 min at 1,000 rpm, and resuspended in PBS. The cells were washed twice more with PBS, resuspended in 2 mL of their respective media (IMDM, IMDM+Retinoic Acid (RA) (1×10^−7M), DMEM/F12+N2) and both cell number and viability assessed using the method of trypan blue (Gibco) exclusion. To create the cell-alginate mixture, 1 mL of cell suspension with a density of 50×10^6 cells/mL was added to 9 mL of a 2.2% (w/v) alginate solution to yield a final cell density of 5×10^6 cells/mL and a final alginate concentration of 2.0% (w/v). This solution was transferred to a 10 mL syringe (BD Biosciences), which, in turn was connected to a syringe pump (KD Scientific, Holliston, Mass.). Alginate beads were generated using an electrostatic bead generator (Nisco, Zurich, Switzerland) at a flow rate of 40 mL/h, and an applied voltage of 6.5 kV, resulting in beads with a diameter of 500 μm. The beads were collected in a 200 mL bath of CaCl2 (100 mM) (Sigma-Aldrich), containing 145 mM NaCl (Sigma-Aldrich), and 10 mM MOPS (Sigma-Aldrich) and were left to polymerize for 10 minutes at room temperature. Beads were transferred to a tissue culture treated 1-25 flask (Falcon, BD Biosciences), following the polymerization step. The CaCl2 solution was removed using a 5 mL pipette, and the beads were washed with 5 mL of HEPES (Gibco). The HEPES was removed and the beads were re-suspended in 5 mL of poly-L-lysine (PLL) (Sigma-Aldrich, MW: 68,600 g/mol) (0.05% w/v) for 2 min. The PLL was then gently removed, replaced with HEPES to wash the beads and the beads were ultimately re-suspended in 5 mL of cell culture media. Media was changed every 4 days post-encapsulation. In all experimental conditions, monolayer culture configurations were used as controls.
Cells were fixed for immunofluorescence analysis on Days 8, 14, 18 and 22.
Cells were fixed before doing any immunofluorescence.
Specimens were excited using a 488 nm filter.

[4] = system: ES cell line D3; experiment: Cell number and viability of alginate-encapsulated ES cells (trypan blue after depolymerization); type: cell-based, mouse; conditions: 2.2% w/v alginate, 5×10^6 cells/mL, with RA
Procedure: All cell cultures were incubated in a humidified 37° C., 5% CO2 environment. The ES cell line D3 (ATCC, Manassas, Va.) was maintained in an undifferentiated state in T-75 gelatin-coated flasks (Biocoat, BD-Biosciences, Bedford, Mass.) in Knockout Dulbecco's modified Eagles medium (Gibco, Grand Island, N.Y.) containing 15% knockout serum (Gibco), 4 mM L-glutamine (Gibco), 100 U/ml penicillin (Gibco), 100 U/ml streptomycin (Gibco), 10 mg/ml gentamicin (Gibco), 1,000 U/ml ESGRO™ (Chemicon, Temecula, Calif.) and 0.1 mM 2-mercaptoethanol (Sigma-Aldrich, St. Louis, Mo.). Media was changed every two days until plates were confluent. ES cultures were split and passaged every 6 days. Following media aspiration, cells were washed with 10 mL of phosphate buffered solution (PBS) (Gibco), detached using 3 mL of trypsin EDTA (Gibco) for 3 minutes, and subsequently 12 mL of Knockout DMEM was added. Cells were then replated in gelatin-coated T-75 flasks at a density of 1 million cells/mL and only passages 10 through 25 were used in the experiments. In order to induce differentiation, cells were cultured in Iscove's modified Dulbecco's medium (Gibco) containing 20% fetal bovine serum (Gibco), 4 mM L-glutamine (Gibco), 100 U/ml penicillin (Gibco), 100 U/ml streptomycin (Gibco), 10 mg/ml gentamicin (Gibco) in the presence or absence of 10^−7M trans-retinoic acid (Sigma-Aldrich). […]

[5] = system: encapsulated ES cells; experiment: Intracapsular immunofluorescence of neural lineage markers and albumin in encapsulated ES cells; type: cell-based, mouse; conditions: 2.2% alginate, 10^-7 M retinoic acid
Procedure: Alginate solution was prepared by dissolving 2.2 g of alginic acid sodium salt (MW: 100,000-200,000 g/mol, G Content: 65%-70%, Sigma-Aldrich) in 100 mL of Ca^2+ free DMEM (Gibco), using a heated magnetic stir plate at a temperature of 65° C. The solution was then filtered using a 45 μm syringe filter (Fisher Scientific, Pittsburgh, Pa.). To create the cell-alginate mixture, 1 mL aliquot of cell suspension with a seeding density of 5×10^7 cells/mL was added to 9 mL of either 1.2%, 1.7%, 2.2% or 2.5% (w/v) alginate solution to yield a final cell seeding density of 5×10^6 cells/mL. This solution was transferred to a 10 mL syringe, and was connected to a syringe pump (KD Scientific, MA). Alginate beads were generated using an electrostatic bead generator (Nisco, Zurich, Switzerland) at a flow rate of 40 mL/h, and an applied voltage of 6.4 kV. The beads were extruded into a 200 mL bath of CaCl2 (100 mM), containing 145 mM NaCl, and 10 mM MOPS (all from Sigma-Aldrich) and were left to polymerize for 10 min at room temperature (Maguire, T., et al., Biotechnol. Bioeng., 93(3):581-591 (2006)). Beads were then transferred to a tissue culture treated T-25 flask. The CaCl2 solution was removed using a 5 mL pipette, and the beads were washed with 5 mL of HEPES (Gibco). The HEPES was removed and the beads were resuspended in 5 mL of poly-L-lysine (PLL) (Sigma-Aldrich, MW 68,600 g/mol) (0.05% w/v) for 2 min. The PLL was then gently removed, replaced with HEPES to wash the beads and the beads were ultimately resuspended into 5 mL of IMDM medium (Invitrogen, Carlsbad, Calif.) media with and without 10^−7M trans-retinoic acid (Bain, G., et al., Dev. Biol., 168(2):342-357 (1995)). Media was changed at days 4, 8, 12, 16 and 20 post-encapsulation.
To assess the effect of RA on lineage commitment within the alginate microenvironment, individual cells were examined within the encapsulated population using indirect immunofluorescence analysis with a panel of neural lineage specific antibodies, including neurofilament 160 kD (neuronal marker), O1 (oligodendrocyte marker) and GFAP (astrocyte marker). Specific antibody binding was assessed relative to a non-specific immunoglobulin control.
After assessing the neural specific markers, the inventors also investigated the effects of different alginate concentrations, e.g., 1.2%, 1.7% and 2.5%, on neural differentiation in the alginate encapsulation microenvironment.
Encapsulated cells were washed with PBS (Gibco) and fixed on days 4, 8, 12, 16 and 20 with 4% paraformaldehyde to evaluate surface proteins or together with 0.25% Triton-X to evaluate intracellular protein expression. […]

[6] = system: encapsulated ES cells; experiment: Intracapsular aggregate size of encapsulated ES cells; type: cell-based, mouse; conditions: in the presence of retinoic acid, entire differentiation period
Procedure: Bright field images were acquired using an Olympus IX70 microscope and an Olympus digital camera. For each microcapsule, 5 z-sectional images were taken at 50 μm intervals to avoid multiple quantification of the same aggregate, for a total depth of 250 μm. Image quantification was conducted using Olympus Microsuite imaging analysis software.

[7] = system: encapsulated ES cells; experiment: Three dimensional alginate poly-L-lysine encapsulated oligodendrocyte differentiation, immunofluorescence; type: cell-based, mouse; conditions: 3D encapsulated, IMDM with Retinoic Acid, Day 12

Row | Structure (SMILES) | cell morphology [1] | CNPase expression over time [1] | O1 expression over time [1] | Oil Red O stain compared to control [2] | MBP expression ([3]; 3D, day 22) | O1 expression ([3]; 3D, day 22) | CNPase expression ([3]; 3D, day 22) | also measured
1 | CN(CCOc1ccc(C[C@H](Nc2ccccc2C(=O)c2ccccc2)C(=O)O)cc1)c1ccccn1 [PPAR gamma, GW1929] | two distinct morphologies | large increase over the initial 10 days thereafter stabilizing | gradually tapers over the 14 day period | significantly higher than control | about 45% | about 22% | ~53% | cell death compared to all other cases [1]: significant increase in cell death; O1 expression ([3]; 3D, day 14): about 42%; MBP expression ([3]; 3D, day 18): about 74%
2 | CC1=C(/C=C/C(C)=C/C=C/C(C)=C/C(=O)O)C(C)(C)CCC1 [retinoic acid, trans-retinoic acid] |  |  |  |  |  |  |  | final density relative to the initial seeding density ([4]; 20-day culture): 2.5 times; Cell viability ([4]; throughout the culture period): greater than 95%; encapsulated cells stained positively for intracellular albumin [5]: less than 5%; maximum percentage of encapsulated cells positively stained for GFAP [5]: 38.6%; maximum percentage of encapsulated cells positively stained for NF 150 kD [5]: 41.9%; maximum percentage of encapsulated cells positively stained for O1 [5]: 32.3%; size of individual cells [6]: approximately 13 μm; A2B5 expression (highest, as stated in text) ([3]; 3D encapsulated, exposure to RA for 16 days): 44%; CNPase expression [7]: 32%; O1 expression [7]: 32%
3 | Cc1cccc(Nc2cc(Cl)nc(SCC(=O)O)n2)c1C [PPAR alpha, WY-14643] | majority of cells have extended processes with some having secondary branching | increases over the initial 6 days and stabilizes for the remaining 8 days | drops consistently over the 14 day period | minimal effect compared to control |  | ~15% | about 60% | MBP expression over time ([3]; 3D, IMDM + RA 8 days then PPAR agonist for 14 days): stays pretty constant over the time period; O1 expression ([3]; 3D, day 18): ~35%
4 | Cc1cc(SCc2sc(-c3ccc(C(F)(F)F)c(F)c3)nc2C)ccc1OCC(=O)O [PPAR delta, GW0742] | majority of cells have extended processes with some having secondary branching | gradually increases over the 14 day period | drops sharply over the last 8 days | significantly higher than control | ~80% |  | about 40% | differentiation at various concentrations ([3]; 3D, 0.1 μM, 1 μM and 10 μM): No significant differences
